Experimental data reported in patent US20130225524A1, “Chemical Compounds” (priority 2010, published 2013).
Counter-ions that a name gives are not always drawn.

Molecular target: lactate dehydrogenase A (LDH-A) (Homo sapiens, UniProt P00338)
Experiment: biochemical
Description: Assay buffer (50 mM potassium phosphate, pH 7.0, 50 mM NaCl, 0.25 mM CHAPS, 0.0025% BSA) is added to one column of a standard assay plate stamped with DMSO solutions of test compounds. A solution of LDH-A and NAD+ (final concentrations: 300 pM LDH-A and 150 uM NAD+) in assay buffer is added to remaining plate wells containing DMSO solutions of test compounds and DMSO only control wells and the mixtures incubated for 10 min at room temperature. A solution of lactate, resazurin, diaphorase (final concentrations: 2 mM lactate, 6.25 uM resazurin, 0.4 U/mL diaphorase) in assay buffer is added to all wells and the mixtures incubated for 30 min at room temperature. Stop solution (2 uL, components: assay buffer and 25 mM oxamate) is added to each well and the fluoresecence intensity increase (FLINT) measured at 590 nm on a ViewLux®imager.

Compound `COc1ncc(-c2ccc3c(Nc4cc(C(=O)O)cc(C(C)C(C)C)c4)c(C(N)=O)cnc3c2)c(OC)n1` (stereo not shown) [Example 60, 3-({3-(aminocarbonyl)-7-[2,4-bis(methyloxy)-5-pyrimidinyl]-4-quinolinyl}amino)-5-(1,2-dimethylpropyl)benzoic acid, acetate salt] has an IC50 of 63.1 nM.
